Source: patent US4816447A, “Anti-viral guanine compounds” (priority 1984, dated 1989)
Read-outs that look alike come from different tables or passages of the source.

Key:
Epstein-Barr virus (EBV) = assay: Human cord blood lymphocyte transformation assay; type: cell-based, Epstein-Barr (B95-8); human cord blood lymphocytes; conditions: human gammaherpesvirus 4, B-95-8; B95-8, lymphocyte transformation; read-out: Minimum Effective Concentration
Text: ^c Human cord blood lymphocyte transformation assay.

[1] = system: Herpes simplex virus type I (HSV-1), strain Schooler; assay: Treatment of Herpes simplex virus infection in mice, repeat experiment (Table III); type: in vivo, HSV-1; ICR/Ha mice; conditions: for Percent Survival: at 15 days
Method: Twenty gram ICR/Ha mice were injected intraperitoneally (ip) with 0.5 ml of a 10^-5 dilution of a stock preparation of Herpes simplex virus type I (HSV-1), strain Schooler. This virus challenge infected each animal with approximately 100 LD50. […] The placebo group was composed of 45 animals. All compounds were solubilized in physiological saline, pH 11.5.

SV40 = assay: Plaque inhibition, SV40 on CV-1 cells (Table V); type: cell-based, SV40; CV-1 (monkey) cells; conditions: for EC50: Primates, read-out: ED50, concentration required for 50% plaque inhibition, SV40, CV-1
Method: ED50 values developed for the cyclic monophosphate are compared on a weight basis to those established for the compound of Formula II and acyclovir.
SV40 was assayed on CV-1 (monkey) cell cultures.

HSV-1 383R1 = type: cell-based, HSV-1 (383R1); NIH 3T3 mouse cells; conditions: for EC50: Human alphaherpesvirus 1, in Mus musculus
[2] = system: HSV-1 wild type (Schooler); assay: Protection of mice against intraperitoneal infection with HSV-1 (Table IX); type: in vivo, HSV-1; mice; conditions: for Mean Survival Time (± SD): HSV-1, s.c. twice daily, 4 days; for protective efficacy over a 10^6 -fold virus challenge range: HSV-1 or HSV-1 (383R1)
Method: 1. […] Groups of mice infected intraperitoneally with increasing doses of HSV-1 or HSV-1 (383R1) were treated twice daily subcutaneously for 4 days with either the Cyclic Monophosphate or the compound of Formula II. Mean survival times of treated mice were compared.

[3] = system: Herpes simplex virus type 1 (Strain S); assay: Orofacial Herpes simplex virus type 1 infection in mice, oral treatment (Table XIII); type: in vivo, Herpes simplex virus type 1; HRS (hairless) mice; conditions: for Lesion Incidence (%) / Lesion Incidence (number/Total) / Lesion Severity (scale 0 to 4): 7 days
Method: Twenty grams HRS (hairless) mice were infected on the abraded orofacial area with Herpes simplex virus type 1 (Strain S). […] At 7 days after initiation of infection, the extent of lesion development in the orofacial area was measured on a scale of 0 (no lesions) to 4 (massive lesions over the entire snout).

[4] = system: Herpes simplex virus type 1 (Strain S); assay: Orofacial Herpes simplex virus type 1 infection in mice, therapeutic oral treatment (Table XIV); type: in vivo, Herpes simplex virus type 1; HRS (hairless) mice; conditions: for Lesion Incidence (%) / Lesion Incidence (number/Total) / Lesion Severity (scale 0 to 4): 12.5 mg/kg/day oral
Method: Twenty gram HRS (hairless) mice were infected on the abraded orofacial area with Herpes simplex virus type 1 (Strain S).
a. Groups of 10 infected animals were treated twice daily by oral gavage for up to 7 days with the compound of formula II at 12.5 mg/kg/day, starting 3, 8, 12, 24, 48, 72, or 96 hours after infection. […]
At 7 days after initiation of infection, the extent of lesion development in the orofacial area was measured on a scale of 0 (no lesions) to 4 (massive lesions over the entire snout).

HSV-1 PAA ®1 = assay: microbe, parasite or virus in culture; conditions: Human alphaherpesvirus 1, read-out: ED50
[5] = system: Herpes simplex virus type 1; assay: Tube dilution assay, viral cytopathology of HSV-1 in rabbit kidney cell cultures; conditions: Human alphaherpesvirus 1, in Oryctolagus cuniculus
[6] = system: Herpes simplex virus type 2; assay: Tube dilution assay, viral cytopathology of HSV-2 in rabbit kidney cell cultures; conditions: Human alphaherpesvirus 2, in Oryctolagus cuniculus, read-out: Minimum Effective Concentration
HSV-1 WT = assay: 50% plaque reduction of HSV-1 wild type in 3T3 TK- and 3T3 TK-/TK+HSV cells (Table VIII); conditions: for EC50: Human alphaherpesvirus 1, in Mus musculus, read-out: Antiviral Concentration, 50% plaque reduction
HSV-1 [7] = assay: Intraperitoneal HSV-1 infection in mice, oral treatment (Table VI); type: in vivo, HSV-1; ICR/Ha mice
HSV-1 [8] = assay: Corneal HSV-1 infection of rabbit eyes, topical treatment (Table VI); type: in vivo, HSV-1; rabbits
[9] = read-out: Antiviral Concentration, 50% plaque reduction, HSV-1 383R1, 3T3 TK^- /TK^+HSV cells
[10] = read-out: Antiviral Concentration, 50% plaque reduction, HSV-1 383R1, 3T3 TK^- cells

Nc1nc2c(ncn2COC(CO)CO)c(=O)[nH]1 [Compound of Formula II, 9-(1,3-Dihydroxy-2-propoxymethyl)guanine]
minimal effective concentration (Epstein-Barr virus (EBV)): 1 to 5 µg/mL
Avg. Survival Time ([1]; 0.2 mg/kg/day s.c.): 9.0 days
Percent Survival ([1]; 0.2 mg/kg/day s.c.): 26%
Avg. Survival Time ([1]; 0.8 mg/kg/day s.c.): 9.8 days
Percent Survival ([1]; 0.8 mg/kg/day s.c.): 40%
Avg. Survival Time ([1]; 3.1 mg/kg/day s.c.): 11.8 days
Percent Survival ([1]; 3.1 mg/kg/day s.c.): 46%
Avg. Survival Time ([1]; 12.5 mg/kg/day s.c.): 17.2 days
Percent Survival ([1]; 12.5 mg/kg/day s.c.): 93%
Avg. Survival Time ([1]; 50 mg/kg/day s.c.): 19.5 days
Percent Survival ([1]; 50 mg/kg/day s.c.): 100%
calculated average relative potency to acycloguanosine (95% CI) ([1]; combined results of both mouse experiments): 287.0
EC50 (SV40): > 100 µg/mL
EC50 (HSV-1 383R1; [9]): 0.06 µg/mL
EC50 (HSV-1 383R1; [10]): 5 µg/mL
Mean Survival Time (± SD) [2]: 12.55 (0.88)
protective efficacy over a 10^6 -fold virus challenge range [2]: no significant difference in protective efficacy
Lesion Incidence (%) ([3]; 0.2 mg/kg/day oral): 100%
Lesion Incidence (number/Total) ([3]; 0.2 mg/kg/day oral): 7/7
Lesion Severity (scale 0 to 4) ([3]; 0.2 mg/kg/day oral): 2.93
Lesion Incidence (%) ([3]; 0.8 mg/kg/day oral): 100%
Lesion Incidence (number/Total) ([3]; 0.8 mg/kg/day oral): 7/7
Lesion Severity (scale 0 to 4) ([3]; 0.8 mg/kg/day oral): 2.93
Lesion Incidence (%) ([3]; 3.1 mg/kg/day oral): 67%
Lesion Incidence (number/Total) ([3]; 3.1 mg/kg/day oral): 6/9
Lesion Severity (scale 0 to 4) ([3]; 3.1 mg/kg/day oral): 1.00
Lesion Incidence (%) ([3]; 12.5 mg/kg/day oral): 20%
Lesion Incidence (number/Total) ([3]; 12.5 mg/kg/day oral): 2/10
Lesion Severity (scale 0 to 4) ([3]; 12.5 mg/kg/day oral): 0.45
Lesion Incidence (%) ([3]; 50 mg/kg/day oral): 10%
Lesion Incidence (number/Total) ([3]; 50 mg/kg/day oral): 1/10
Lesion Severity (scale 0 to 4) ([3]; 50 mg/kg/day oral): 0.05
incidence of lesions vs placebo ([3]; 50 and 12.5 mg/kg): statistically significant protection
extent of lesion development vs placebo ([3]; all concentrations used): statistically significant protection
relative potency to acycloguanosine ([3]; statistically significant): 6.9
Lesion Incidence (%) ([4]; start 3 hours post infection): 60%
Lesion Incidence (number/Total) ([4]; start 3 hours post infection): 6/10
Lesion Severity (scale 0 to 4) ([4]; start 3 hours post infection): 1.30
Lesion Incidence (%) ([4]; start 8 hours post infection): 30%
Lesion Incidence (number/Total) ([4]; start 8 hours post infection): 3/10
Lesion Severity (scale 0 to 4) ([4]; start 8 hours post infection): 0.55
Lesion Incidence (%) ([4]; start 12 hours post infection): 50%
Lesion Incidence (number/Total) ([4]; start 12 hours post infection): 5/10
Lesion Severity (scale 0 to 4) ([4]; start 12 hours post infection): 0.55
Lesion Incidence (%) ([4]; start 24 hours post infection): 40%
Lesion Incidence (number/Total) ([4]; start 24 hours post infection): 4/10
Lesion Severity (scale 0 to 4) ([4]; start 24 hours post infection): 0.40
Lesion Incidence (%) ([4]; start 48 hours post infection): 90%
Lesion Incidence (number/Total) ([4]; start 48 hours post infection): 9/10
Lesion Severity (scale 0 to 4) ([4]; start 48 hours post infection): 1.50
Lesion Incidence (%) ([4]; start 72 hours post infection): 80%
Lesion Incidence (number/Total) ([4]; start 72 hours post infection): 8/10
Lesion Severity (scale 0 to 4) ([4]; start 72 hours post infection): 2.55
Lesion Incidence (%) ([4]; start 96 hours post infection): 100%
Lesion Incidence (number/Total) ([4]; start 96 hours post infection): 10/10
Lesion Severity (scale 0 to 4) ([4]; start 96 hours post infection): 3.85
incidence of lesion development vs placebo ([4]; start 8, 12 and 24 hours after infection): statistically significant lower incidence of lesion development
lesion scores vs placebo ([4]; start as late as 72 hours after infection): statistically significant lower lesion scores
EC50 (HSV-1 PAA ®1): 0.1 µg/mL
minimal effective concentration ([5]; read-out: Minimum Effective Concentration, Strain McIntyre): 3 µg/mL
minimal effective concentration ([5]; read-out: Minimum Effective Concentration, Strain McKrae): 1 to 3 µg/mL
minimal effective concentration ([5]; read-out: Minimum Effective Concentration, Strain S): 1 to 3 µg/mL
minimal effective concentration ([5]; read-out: Minimum Effective Concentration, Strain Schooler): 1 to 3 µg/mL
minimal effective concentration [6]: 1 to 3 µg/mL
EC50 (HSV-1 WT): 0.06 µg/mL

Nc1nc2c(ncn2COC2COP(=O)(O)OC2)c(=O)[nH]1 (centres unmarked) [Cyclic Monophosphate, Potassium 9-(1,3-dihydroxy-2-propoxymethyl)guanine cyclic monophosphate]
EC50 (SV40): 6 µg/mL
inhibition of DNA virus (SV40; SV40): inhibitory
minimal effective dose (HSV-1 [7]; Human alphaherpesvirus 1, intraperitoneal infection, oral treatment, read-out: Min. Effective Dose): 0.8 to 3.1 mg/kg/day
efficacy relative to acyclovir by minimum effective dose (HSV-1 [7]; intraperitoneal): consistently more efficacious than acyclovir
antiviral efficacy in the herpes-mouse infection model relative to compound of Formula II (HSV-1 [7]; not shown in Table VI): generally equivalent
Min. Effective Dose (HSV-1 [8]; corneal infection, topical treatment): 1.0%
limiting progression and resolving corneal lesions (HSV-1 [8]; infected rabbits): equally effective
antiviral activity on 3T3 TK^- /TK^+HSV vs 3T3 TK^- cells (HSV-1 383R1; HSV-1 (383R1)): equivalent
EC50 (HSV-1 383R1; [9]): 1 µg/mL
EC50 (HSV-1 383R1; [10]): 1 µg/mL
Mean Survival Time (± SD) [2]: 12.65 (0.84)
protective efficacy over a 10^6 -fold virus challenge range [2]: no significant difference in protective efficacy
EC50 (HSV-1 PAA ®1): 3.2 µg/mL
susceptibility of HSV-1 greater than HSV-1 (383R1) (HSV-1 WT): about 5 fold
EC50 (HSV-1 WT): 0.2 µg/mL
